Publication PMC4544649, “A psychrotolerant strain of Serratia marcescens (MTCC 4822) produces laccase at wide temperature and pH range” (AMB Express, 2015)

System: laccase
Conditions: 0.10 M citrate-phosphate buffer pH 2.5, room temperature; ABTS 0.05-1.00 mM; partially purified enzyme

`CCn1c(=NN=c2sc3cc(S(=O)(=O)O)ccc3n2CC)sc2cc(S(=O)(=O)O)ccc21` [ABTS, 2, 2'-azino-bis (3-ethylbenzothiazoline-6-sulphonic acid)] showed a Km of 100 µM.
